Source: patent US20220411422A1, “ERBB RECEPTOR INHIBITORS” (Dizal (Jiangsu) Pharmaceutical Co., Ltd., priority 2018, published 2022)
One block for each compound: values may come before it.

Columns and labels:
pHER2 = target: T1, pHER2 (Homo sapiens, UniProt P04626); experiment: pHER2 cellular activity in BT474c1 cell line; assay type: cell-based; conditions: BT474c1 cell line
T1 construct: pHER2 in cells expressing HER2; endogenous in cells; host or cells: BT474c1
Procedure: A compound's activity of selective inhibition for HER2 wild type amplification can be evaluated with BT474 cell line (ATCC® HTB-20™). The cell line expressed phosphorylated HER2 protein and its proliferation depended on the amplified gene, which could be used for in vitro PD and anti-proliferation assays.
The compounds' inhibition of target modulation were determined as follows: BT474 cells were sorted in 96 well plates (20000 cells/well) with the DMEM medium containing 10% FBS overnight and then treated with tested compounds at a series of concentrations (3 μM, 0.3 μM, 0.1 μM, 0.03 μM, 0.01 μM, 0.003 μM, 0.001 μM, 0.0001 μM). The plates were incubated for 4 h at 37° C. with 5% CO2 and then the HER2 (Y1248) phosphorylation level of cells in each well were measured with MSD Kit (Phospho-ErbB2 (Tyr1248) Assay Whole Cell Lysate Kit: Cat #K151CLD-3). The assay is a electrochemiluminescent method (MESO SCALE DISCOVERY) for determining both phosphorylated and total HER2 of cells with an MSD SECTOR® Imager and then the ratio of p-HER2/total HER2 can be generated by the machine. The percentage of inhibition was got from formula: % inhibition=100×[1−(ratio of sample well−ratio of Min ctrl well)/(ratio of Max−Ratio of Min ctrl well)]. The IC50 values were further calculated as the compounds concentration required for 50% inhibition in best-fit curves using Prism GraphPad 7.0 or Microsoft Xlfit software.

wild type EGFR = target: T2, wild type EGFR (Homo sapiens, UniProt P00533); experiment: pEGFR cellular activity in A431 cell line; assay type: cell-based
T2 construct: which expresses wild type EGFR protein; endogenous in cells; host or cells: A431
Procedure: A compound's activity of inhibition for EGFR WT can be evaluated with NCI-H838 (ATCC® CRL-5844™) and A431 cell line (the epidermoid carcinoma cell line A-431), which expresses wild type EGFR protein as the count screening to define the selectivity of the compound.
The compounds' inhibition of target modulation were determined as follows: NCI-H838 cells and A431 cells were sorted in 96 well plates (20000 cells/well) with the DMEM medium containing 1% FBS overnight and then treated with tested compounds at a series of concentrations (3 μM, 0.3 μM, 0.1 μM, 0.03 μM, 0.01 μM, 0.003 μM, 0.001 μM, 0.0001 μM). The plates were incubated for 4 h at 37° C. with 5% CO2 followed by the stimulation of recombinant hEGF (100 ng/ml for 10 Min, RD, Cat #236-EG) and then the EGFR (Y1068) phosphorylation level of cells in each well were measured with MSD Kit (MULTI-SPOT®96 4-Spot HB Prototype EGFR Triplex […]: pEGFR (Tyr1068), pEGFR (Tyr1173), Total EGFR (Cat #N45ZB-1). The assay is a electrochemiluminescent method (MESO SCALE DISCOVERY) for determining both phosphorylated and total EGFR of cells with an MSD SECTOR® Imager and then the ratio of p-EGFR/total EGFR can be generated by the machine. The percentage of inhibition was used the formula: % inhibition=100×[1−(ratio of sample well−ratio of Min ctrl well)/(ratio of Max−Ratio of Min ctrl well)]. […]

[1] = Blood brain barrier penetration assay in rats (short oral absorption model with blood, plasma and brain binding); assay type: in vivo; conditions: male, Han Wistar, Table 5, rat
Procedure: In vitro blood, plasma and brain binding assay was carried out with equilibrium dialysis device. […] At the end of incubation, a 50 μL aliquot from the receiver side and a 5 μL from the donor chamber were taken. The 5 μL sample was further diluted with 45 μL of blank blood, plasma or brain homogenate. Paired samples were matrix-matched with either buffer or blank matrix, and mixed for 2 min, and then precipitated with 150 μL cold acetonitrile with 100 ng/mL tolbutamide as internal standard. After centrifuging at 4000 rpm for 20 min, supernatant was diluted with 0.1% formic acid aqueous solution and analyzed for LC/MS/MS (API 4000, Applied Biosystems, Foster City). […] D is dilution factor. […] A Short oral absorption (SOA) model is an in-vivo screening model to identify brain penetration of a compound. Six male Han Wistar rats purchased from Beijing Vital River were orally dosed with the compound. […] Brain tissue was harvested and homogenized in 3× volume of 100 mM phosphate buffered saline (pH7.4). All samples were stored at ˜−70° C. prior to LC/MS/MS analysis. Standards were prepared by spiking blank plasma, blood, brain homogenate and artificial CSF. […] After 2 min vortex and 5 min centrifugation at 14,000 rpm, supernatant was analyzed by LC/MS/MS (API 4000, Applied Biosystems, Foster City). Two sets of standard curves were run at the beginning and end of each batch from blood sample analysis. For brain and CSF samples, one standard curve was analyzed along with test samples. Total brain levels, expressed as brain/blood ratio (Kp,brain) were measured by AUC(brain)/AUC(blood or plasma) in rodents after oral administration. Similarly, CSF levels represented by a ratio of CSF/blood exposure (Kp,CSF) were determined by AUC(CSF)/AUC(blood or plasma). Free fraction of test compound in biological matrix was determined by in vitro blood and brain binding assay. Kp,uu brain and Kp,uu CSF was calculated by the following equation: Kp,uu brain=AUC(brain)/AUC(blood or plasma)×(fubrain/fublood/plasma) and […] Moreover, the ability of Compounds 6 and 16 to cross BBB was assessed in both rat and monkey by measuring unbound brain-to-plasma partition ratio (Kpuu,brain) and unbound CSF-to-plasma partition ratio (Kpuu,CSF) with the method mentioned above.

[2] = Blood brain barrier penetration assay in monkeys; assay type: in vivo; conditions: CSF, oral; Table 5; monkey
Procedure: In vitro blood, plasma and brain binding assay was carried out with equilibrium dialysis device. Diluted blood (1:1 with DPBS pH7.4), EDTA-anticoagulated plasma, and brain homogenate (1:3 with DPBS pH7.4) were spiked with 5 μM test compound (in triplicate) and dialyzed against equal volume of 150 μL 100 mM PBS buffer (pH7.4) at 37° C. for appropriate equilibration time in a slowly rotated plate. At the end of incubation, a 50 μL aliquot from the receiver side and a 5 μL from the donor chamber were taken. The 5 μL sample was further diluted with 45 μL of blank blood, plasma or brain homogenate. […] After centrifuging at 4000 rpm for 20 min, supernatant was diluted with 0.1% formic acid aqueous solution and analyzed for LC/MS/MS (API 4000, Applied Biosystems, Foster City). Unbound fraction (fu) of test compound were calculated by the ratio of the buffer side response to the brain homogenate/plasma/blood side response, and unbound fraction (fu,bl, fu,pl and fu,br) of test compound in non-diluted blood and tissue were calculated from measured fu in homogenate and diluted blood with the following equation: fu,bl (fu,br)=(1/D)/[(1/fu−1)+1/D)]. […]
Total brain levels, expressed as brain/blood ratio (Kp,brain) were measured by AUC(brain)/AUC(blood or plasma) in rodents after oral administration. […]
Kp,uu brain and Kp,uu CSF was calculated by the following equation: […]

[3] = system: Human Pgp/BCRP transporter; experiment: Human Pgp/BCRP transporter substrate assessment; assay type: in vitro ADME
[4] = Clinical plasma and CSF PK in HER2+ MBC patients; assay type: in vivo, human; conditions: human, CSF, oral; patients with BM; read-out: averaged Kpuu,CSF
Procedure: The plasma concentration of Compound 6 at the dosage of 50 to 200 mg following single dose or multiple doses were tested. […] In patients with BM, averaged Kpuu,CSF was around 1.82 and 0.78 for Compound 6 and its active metabolite Compound 16, respectively.

HER2 WT Amplification = target: T3, HER2 WT Amplification (Homo sapiens, UniProt P04626); experiment: HER2 (Y1248) phosphorylation in BT474 cells, MSD kit; assay type: cell-based; conditions: pHER2 (Y1248), 4 h
T3 construct: The cell line expressed phosphorylated HER2 protein and its proliferation depended on the amplified gene; endogenous in cells; host or cells: BT474 (ATCC HTB-20)
Procedure: The plates were incubated for 4 h at 37° C. with 5% CO2 and then the HER2 (Y1248) phosphorylation level of cells in each well were measured with MSD Kit (Phospho-ErbB2 ([…]) Assay Whole Cell Lysate Kit: Cat #[…]-3). The assay is a electrochemiluminescent method (MESO SCALE DISCOVERY) for determining both phosphorylated and total HER2 of cells with an MSD SECTOR® Imager and then the ratio of p-HER2/total HER2 can be generated by the machine.

EGFR WT = target: T4, EGFR WT (Homo sapiens, UniProt P00533); experiment: EGFR (Y1068) phosphorylation in NCI-H838 cells, MSD kit; assay type: cell-based; conditions: pEGFR (Y1068), 4 h then hEGF stimulation
T4 construct: which expresses wild type EGFR protein; endogenous in cells; host or cells: NCI-H838 (ATCC CRL-5844)
T4 sequence (P00533 25-1210): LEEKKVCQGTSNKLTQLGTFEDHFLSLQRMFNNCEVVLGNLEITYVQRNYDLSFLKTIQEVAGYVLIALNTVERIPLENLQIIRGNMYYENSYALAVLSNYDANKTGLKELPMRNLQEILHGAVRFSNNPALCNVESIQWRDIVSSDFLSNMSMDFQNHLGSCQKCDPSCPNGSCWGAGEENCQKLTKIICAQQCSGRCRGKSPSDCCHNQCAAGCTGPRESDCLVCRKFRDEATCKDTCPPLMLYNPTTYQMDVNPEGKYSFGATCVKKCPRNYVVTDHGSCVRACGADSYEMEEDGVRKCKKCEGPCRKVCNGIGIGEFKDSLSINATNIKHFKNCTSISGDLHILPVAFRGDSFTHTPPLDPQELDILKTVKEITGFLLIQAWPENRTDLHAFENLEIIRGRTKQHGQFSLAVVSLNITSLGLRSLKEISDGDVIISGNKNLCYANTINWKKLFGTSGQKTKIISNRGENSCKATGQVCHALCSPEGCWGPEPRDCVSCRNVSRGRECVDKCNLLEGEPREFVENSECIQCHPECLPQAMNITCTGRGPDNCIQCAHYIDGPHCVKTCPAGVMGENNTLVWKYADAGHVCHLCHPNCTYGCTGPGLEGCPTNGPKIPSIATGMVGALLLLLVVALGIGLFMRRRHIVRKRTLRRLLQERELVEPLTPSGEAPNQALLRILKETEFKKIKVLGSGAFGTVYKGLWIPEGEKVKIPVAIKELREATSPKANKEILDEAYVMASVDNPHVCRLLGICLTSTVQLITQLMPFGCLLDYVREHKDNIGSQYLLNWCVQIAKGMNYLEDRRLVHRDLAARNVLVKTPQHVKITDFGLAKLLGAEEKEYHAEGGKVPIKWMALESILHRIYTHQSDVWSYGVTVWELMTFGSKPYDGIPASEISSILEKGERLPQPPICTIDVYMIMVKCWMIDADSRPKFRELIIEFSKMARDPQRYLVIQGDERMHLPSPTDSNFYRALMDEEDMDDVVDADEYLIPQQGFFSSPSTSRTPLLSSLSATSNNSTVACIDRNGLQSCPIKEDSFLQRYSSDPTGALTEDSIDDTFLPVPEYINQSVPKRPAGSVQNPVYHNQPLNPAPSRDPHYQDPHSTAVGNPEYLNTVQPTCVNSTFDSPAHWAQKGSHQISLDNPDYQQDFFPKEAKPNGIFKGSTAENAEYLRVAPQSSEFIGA

T3 sequence (P04626 23-1255): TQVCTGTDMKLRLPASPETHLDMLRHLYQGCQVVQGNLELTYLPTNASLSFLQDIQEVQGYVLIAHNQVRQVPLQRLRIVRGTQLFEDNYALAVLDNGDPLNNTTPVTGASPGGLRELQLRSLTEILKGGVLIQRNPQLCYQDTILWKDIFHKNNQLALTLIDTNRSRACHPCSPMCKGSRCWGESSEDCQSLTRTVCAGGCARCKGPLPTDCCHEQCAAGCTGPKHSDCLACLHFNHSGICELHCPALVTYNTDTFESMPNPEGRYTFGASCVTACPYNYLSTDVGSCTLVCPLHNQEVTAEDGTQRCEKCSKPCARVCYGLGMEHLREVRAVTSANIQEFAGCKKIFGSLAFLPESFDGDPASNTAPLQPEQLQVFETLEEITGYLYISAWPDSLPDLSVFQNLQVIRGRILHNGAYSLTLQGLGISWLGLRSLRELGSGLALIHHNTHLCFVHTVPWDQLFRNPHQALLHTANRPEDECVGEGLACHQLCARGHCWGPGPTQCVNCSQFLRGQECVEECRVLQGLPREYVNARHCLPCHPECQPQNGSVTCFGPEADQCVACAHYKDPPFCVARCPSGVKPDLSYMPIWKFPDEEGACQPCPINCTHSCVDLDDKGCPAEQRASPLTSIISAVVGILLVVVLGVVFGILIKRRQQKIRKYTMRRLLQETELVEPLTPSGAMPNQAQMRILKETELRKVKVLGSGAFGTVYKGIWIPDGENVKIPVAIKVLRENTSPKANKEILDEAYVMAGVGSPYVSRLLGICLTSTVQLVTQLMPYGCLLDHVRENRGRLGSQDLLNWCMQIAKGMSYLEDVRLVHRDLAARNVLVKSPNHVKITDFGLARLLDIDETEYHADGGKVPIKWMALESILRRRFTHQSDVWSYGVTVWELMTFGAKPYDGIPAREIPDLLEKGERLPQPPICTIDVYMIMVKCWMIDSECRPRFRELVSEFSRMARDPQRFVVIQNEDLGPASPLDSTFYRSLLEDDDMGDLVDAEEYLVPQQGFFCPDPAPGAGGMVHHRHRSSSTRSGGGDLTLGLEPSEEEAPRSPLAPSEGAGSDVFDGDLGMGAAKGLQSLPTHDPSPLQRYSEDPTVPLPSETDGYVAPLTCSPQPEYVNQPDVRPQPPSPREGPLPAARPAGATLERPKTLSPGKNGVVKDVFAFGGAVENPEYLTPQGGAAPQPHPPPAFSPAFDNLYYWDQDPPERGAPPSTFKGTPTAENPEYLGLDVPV
T1 sequence (P04626 23-1255): as above
T2 sequence (P00533 25-1210): as the sequence (P00533 25-1210) above

SMILES: COc1cc(O[C@H]2CCNCC2(F)F)c2c(Nc3ccc(Oc4ccn5ncnc5c4)c(C)c3)ncnc2c1 [Compound 16, (S)-N-(4-([1,2,4]triazolo[1,5-a]pyridin-7-yloxy)-3-methylphenyl)-5-((3,3-difluoropiperidin-4-yl)oxy)-7-methoxyquinazolin-4-amine]
IC50 (pHER2): 3.5 nM
IC50 (wild type EGFR): 740 nM
Kp uu ([1]; CSF, read-out: Kp,uu,CSF): 0.23
Kp uu ([1]; brain, read-out: Kp,uu,brain): 0.12
Kp uu [2]: 0.87
Human Pgp/BCRP transporter substrate [3]: No
Kp uu [4]: ~0.78

IC50 (HER2 WT Amplification): 13.1 nM
IC50 (EGFR WT): > 3000 nM
SMILES: Cc1cc(Nc2ncnc3cccc(O[C@@H]4CCN(C)C[C@@H]4F)c23)ccc1Oc1ccn2ccnc2c1 (single isomer, unassigned) [Compound 11]

Kp uu ([1]; brain, read-out: Kp,uu,brain): 0.016
Human Pgp/BCRP transporter substrate [3]: Yes
SMILES: Cc1cc(Nc2ncnc3ccc(NC4=NC(C)(C)CO4)cc23)ccc1Oc1ccn2ncnc2c1 [ONT380, reference compound]

Human Pgp/BCRP transporter substrate [3]: Yes
SMILES: CCOc1cc2ncc(C#N)c(Nc3ccc(OCc4ccccn4)c(Cl)c3)c2cc1NC(=O)/C=C/CN(C)C [Neratinib, reference compound]
